From PMC9119168 (Antiviral Research, 2022)

How the values were obtained:
SARS-CoV-2 Mac1 [1] = target: T1, SARS-CoV-2 Mac1 (Severe acute respiratory syndrome coronavirus 2, UniProt P0DTD1); test: Differential scanning fluorimetry; format: binding
SARS-CoV-2 Mac1 [2] = target: T1, SARS-CoV-2 Mac1; details: read-out: IC50 Mac1 mono-ARH activity; ref Dasovich et al., 2022; cited from earlier work
mammalian cells = details: cited from earlier work
SARS-CoV Mac1 = SARS-CoV Mac1 (Severe acute respiratory syndrome coronavirus, UniProt P0C6X7); format: binding; details: read-out: AS assay IC50 SARS-CoV
MERS-CoV Mac1 = MERS-CoV Mac1 (Middle East respiratory syndrome-related coronavirus, UniProt K9N7C7); format: binding; details: read-out: IC50 AS MERS
Mac1 = details: ref Ni et al., 2021; cited from earlier work

MERS-CoV Mac1, sequence (K9N7C7 1110-1276 limits assumed): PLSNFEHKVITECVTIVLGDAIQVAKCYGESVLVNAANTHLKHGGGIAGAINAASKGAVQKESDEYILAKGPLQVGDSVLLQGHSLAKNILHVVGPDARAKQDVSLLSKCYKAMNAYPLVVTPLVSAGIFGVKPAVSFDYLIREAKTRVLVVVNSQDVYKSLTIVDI

For `Nc1ncnc2c1ncn2[C@@H]1O[C@H](COP(=O)(O)OP(=O)(O)OP(=O)(O)O)[C@@H](O)[C@H]1O` [ATP], the “thermal shift of Mac1 in DSF (in words)” value (SARS-CoV-2 Mac1 [1]) was “no effect”.

For `Cc1nc(Nc2ncc(C(=O)Nc3c(C)cccc3Cl)s2)cc(N2CCN(CCO)CC2)n1` [Dasatinib], the IC50 (SARS-CoV-2 Mac1 [2]) is listed as about 50000 nM and the “toxicity to mammalian cells (in words)” value (mammalian cells) is listed as “toxic to mammalian cells”.

With `Nc1ncnc2c1ncn2[C@@H]1O[C@H](COP(=O)(O)OP(=O)(O)OC[C@H]2OC(O)[C@H](O)[C@@H]2O)[C@@H](O)[C@H]1O` (stereo partly drawn) [ADP-ribose] the IC50 (SARS-CoV Mac1) was 240 nM and the IC50 (MERS-CoV Mac1) was 1250 ± 230 nM.

For `N#C[C@@]1(c2ccc3c(N)ncnn23)O[C@H](CO)[C@@H](O)[C@H]1O` [GS-441524], the “binding to Mac1 (in words)” value (Mac1) is given as “bound to Mac1”.
